Experimental data as given in US20230087609A1, “USE OF A SOLUBLE GUANYLATE CYCLASE (sGC) STIMULATOR OR OF A COMBINATION OF A sGC STIMULATOR AND AN sGC ACTIVATOR FOR CONDITIONS WHEREIN THE HEME GROUP OF sGC IS OXIDIZED OR WHEREIN sGC IS DEFICIENT IN HEME” (Universiteit Maastricht, priority 2020, published 2023).

Molecular target: T1, human apo-sGC (sGCα1 / mutant sGCβ1H105F) (Homo sapiens, UniProt Q02153, H105F)
T1 construct: His tag; made in house; host or cells: Sf9 cells infected with recombinant baculoviruses (provided by E. Martin); sonicated lysate, supernatant used unpurified
T1 sequence (Q02153 1-619 H105F): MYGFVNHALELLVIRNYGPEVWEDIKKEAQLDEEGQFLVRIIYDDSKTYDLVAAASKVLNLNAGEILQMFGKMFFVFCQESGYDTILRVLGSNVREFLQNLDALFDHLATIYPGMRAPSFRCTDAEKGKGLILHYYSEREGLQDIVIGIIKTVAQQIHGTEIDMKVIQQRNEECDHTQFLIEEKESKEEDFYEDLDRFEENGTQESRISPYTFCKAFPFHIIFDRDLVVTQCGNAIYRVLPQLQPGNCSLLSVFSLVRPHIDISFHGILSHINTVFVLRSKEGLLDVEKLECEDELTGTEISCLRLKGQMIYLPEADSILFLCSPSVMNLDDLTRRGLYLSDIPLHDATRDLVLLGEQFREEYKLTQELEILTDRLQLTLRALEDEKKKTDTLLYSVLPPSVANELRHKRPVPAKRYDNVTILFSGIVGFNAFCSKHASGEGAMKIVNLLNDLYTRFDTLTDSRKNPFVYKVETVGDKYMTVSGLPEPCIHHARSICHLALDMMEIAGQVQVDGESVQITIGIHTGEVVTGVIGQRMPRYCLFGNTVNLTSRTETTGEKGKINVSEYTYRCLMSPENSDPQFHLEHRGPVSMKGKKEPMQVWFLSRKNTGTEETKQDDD
T1 sequence (Q02108 1-690 partner): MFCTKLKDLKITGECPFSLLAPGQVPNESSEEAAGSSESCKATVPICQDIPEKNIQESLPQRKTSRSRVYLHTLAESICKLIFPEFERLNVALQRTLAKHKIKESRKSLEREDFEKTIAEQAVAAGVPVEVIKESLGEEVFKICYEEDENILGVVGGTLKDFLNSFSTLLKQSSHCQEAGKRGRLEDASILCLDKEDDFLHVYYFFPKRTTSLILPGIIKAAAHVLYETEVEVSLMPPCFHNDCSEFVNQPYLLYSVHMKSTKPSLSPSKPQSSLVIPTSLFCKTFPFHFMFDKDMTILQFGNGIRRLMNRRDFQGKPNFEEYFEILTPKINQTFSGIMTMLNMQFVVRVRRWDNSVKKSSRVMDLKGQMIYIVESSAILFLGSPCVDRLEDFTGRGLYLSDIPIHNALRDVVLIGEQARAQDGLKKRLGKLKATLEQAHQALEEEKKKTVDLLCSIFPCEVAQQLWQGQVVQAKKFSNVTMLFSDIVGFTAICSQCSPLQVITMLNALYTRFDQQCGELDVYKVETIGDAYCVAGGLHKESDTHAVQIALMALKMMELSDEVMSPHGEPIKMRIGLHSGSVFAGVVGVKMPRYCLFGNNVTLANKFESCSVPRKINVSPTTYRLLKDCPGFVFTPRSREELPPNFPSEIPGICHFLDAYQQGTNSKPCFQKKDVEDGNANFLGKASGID
Test: sGC activity of human apo-sGC expressed in SF-9 cells
Format: biochemical
Procedure: To measure sGC activity, cells were stimulated with 250 μM DEA/NO or 10 μM BAY58-2667 for 3 min at 37° C. Thereafter, cells were immediately lysed in 80% ethanol. Cells were scraped and, after evaporation of ethanol, re-suspended in assay buffer and sonicated. Measurement of sGC activity in crude homogenates of mouse tissue was performed as previously described (Nedvetsky et al., Brain Res. 2002; 950(1-2):148-154. doi: 10.1016/50006-8993(02)03015-9).[9] Briefly, all samples were measured as the formation of cGMP at 37° C. during 10 min in a total incubation volume of […] containing 50 mM triethanolamine-HCl (pH 7.4), 3 mM MgCl2, 3 mM glutathione (Carl Roth, Karlsruhe, Germany), 1 mM IBMX, […], 5 mM creatine phosphate, 0.25 mg/ml creatine kinase and 1 mM or 0.5 mM GTP. After adding sGC activator in the absence or presence of the sGC stimulator the reaction was started by application of GTP solution. […] Thereafter the amount of cGMP was subsequently determined by a commercial enzyme immunoassay kit (Enzo Life Sciences, Lorrach, Germany or Biotrend, Cologne, Germany). […]
Recombinant baculoviruses containing the cDNAs for the sGCa1 subunit with a His tag and mutant sGCβ31H105F with a His tag of human sGC were provided by E. Martin (Houston, Tex., USA). […] Protein concentrations were determined by the RC DC protein assay kit (Bio-Rad, Cat. no. 5000122).

sGC activity / cGMP formation in presence of ODQ (10 μM BAY 41-2272 + 10 μM ODQ (FIG. 8)): improves the formation of cGMP
Structure (SMILES): Nc1nc(-c2nn(Cc3ccccc3F)c3ncccc23)ncc1C1CC1 [BAY 41-2272, 5-cyclopropyl-2-[1-(2-fluoro-benzyl)-1H-pyrazolo[3,4-b]pyridin-3-yl]-pyrimidin-4-ylamine]
sGC activity / cGMP production (10 μM BAY 41-2272 alone (FIG. 8)): activated and cGMP is (increasingly) produced
